Assay results as given in article PMC5218480 (PLoS ONE, 2017).

Test system: MV-4-11 cells
Test: Gene expression microarray analysis (Affymetrix PrimeView) and GSEA
Format: cell-based, human
Design: RFU PODN (11730768_x_at) / Fold change /veh PODN (11730768_x_at) / RFU LINC00158 (11744669_a_at) / Fold change /veh LINC00158 (11744669_a_at) / RFU DUSP10 (11751237_a_at) / Fold change /veh DUSP10 (11751237_a_at) / RFU ID3 (11757404_x_at) / Fold change /veh ID3 (11757404_x_at) / RFU PLEKHG5 (11737974_s_at) / Fold change /veh PLEKHG5 (11737974_s_at) / RFU LRRC4B (11730491_at) / Fold change /veh LRRC4B (11730491_at) / RFU GIMAP4 (11747438_a_at) / Fold change /veh GIMAP4 (11747438_a_at) / RFU KRT8 (11758183_x_at) / Fold change /veh KRT8 (11758183_x_at) / RFU CNN1 (11734310_a_at) / Fold change /veh CNN1 (11734310_a_at) / RFU VPS37D (11726825_at) / Fold change /veh VPS37D (11726825_at) / RFU C10orf10 (11716522_x_at) / Fold change /veh C10orf10 (11716522_x_at) / RFU KIR2DL2 /// KIR2DL4 /// KIR2DL5A /// KIR2DL5B /// KIR2DS1 /// KIR2DS2 /// KIR2DS3 /// KIR2DS4 /// KIR3DL3 /// KIR3DL3 /// KIR3DS1 (11738374_at) / Fold change /veh KIR2DL2 /// KIR2DL4 /// KIR2DL5A /// KIR2DL5B /// KIR2DS1 /// KIR2DS2 /// KIR2DS3 /// KIR2DS4 /// KIR3DL3 /// KIR3DL3 /// KIR3DS1 (11738374_at) / RFU C1QL1 (11718748_at) / Fold change /veh C1QL1 (11718748_at) / RFU TMPRSS4 (11747572_a_at) / Fold change /veh TMPRSS4 (11747572_a_at) / RFU HAMP (11756126_x_at) / Fold change /veh HAMP (11756126_x_at) / RFU RNFT2 (11725882_a_at) / Fold change /veh RNFT2 (11725882_a_at) / RFU NR4A2 (11747474_a_at) / Fold change /veh NR4A2 (11747474_a_at) / RFU ABCC12 (11746883_a_at) / Fold change /veh ABCC12 (11746883_a_at) / RFU TMEM136 (11760407_x_at) / Fold change /veh TMEM136 (11760407_x_at) / RFU CLDN22 /// WWC2 (11732394_at) / Fold change /veh CLDN22 /// WWC2 (11732394_at) / RFU HLA-DPB1 (11760878_x_at) / Fold change /veh HLA-DPB1 (11760878_x_at) / RFU SPINT1 (11716480_a_at) / Fold change /veh SPINT1 (11716480_a_at) / RFU GAP43 (11754022_s_at) / Fold change /veh GAP43 (11754022_s_at) / RFU A4GNT (11735810_at) / Fold change /veh A4GNT (11735810_at) / RFU PRB3 (11715151_x_at) / Fold change /veh PRB3 (11715151_x_at) / RFU TUBB4B (11761932_at) / Fold change /veh TUBB4B (11761932_at) / RFU CAPN14 (11732068_a_at) / Fold change /veh CAPN14 (11732068_a_at) / RFU TMCC2 (11721928_a_at) / Fold change /veh TMCC2 (11721928_a_at) / RFU IRGQ (11745062_a_at) / Fold change /veh IRGQ (11745062_a_at) / RFU FAM174B (11720279_a_at) / Fold change /veh FAM174B (11720279_a_at) / RFU TMPRSS4 (11748680_a_at) / Fold change /veh TMPRSS4 (11748680_a_at) / RFU FAM212B (11763350_a_at) / Fold change /veh FAM212B (11763350_a_at) / RFU PLEKHG5 (11743358_a_at) / Fold change /veh PLEKHG5 (11743358_a_at) / RFU ZSCAN30 (11745921_a_at) / Fold change /veh ZSCAN30 (11745921_a_at) / RFU CMKLR1 (11741424_a_at) / Fold change /veh CMKLR1 (11741424_a_at) / RFU LOC101060620 /// MAPK8IP1 (11723275_at) / Fold change /veh LOC101060620 /// MAPK8IP1 (11723275_at) / RFU SPTSSB (11747773_x_at) / Fold change /veh SPTSSB (11747773_x_at) / RFU PRSS12 (11739890_at) / Fold change /veh PRSS12 (11739890_at) / RFU BIN1 (11741810_x_at) / Fold change /veh BIN1 (11741810_x_at) / RFU WNT11 (11732464_a_at) / Fold change /veh WNT11 (11732464_a_at) / RFU C10orf10 (11716521_a_at) / Fold change /veh C10orf10 (11716521_a_at) / RFU C5orf56 (11738089_at) / Fold change /veh C5orf56 (11738089_at) / RFU CYB561 (11721691_x_at) / Fold change /veh CYB561 (11721691_x_at) / RFU ANKRD19P (11752326_a_at) / Fold change /veh ANKRD19P (11752326_a_at) / RFU OR2T12 /// OR2T33 /// OR2T8 (11738714_s_at) / Fold change /veh OR2T12 /// OR2T33 /// OR2T8 (11738714_s_at) / RFU VCAN (11748164_a_at) / Fold change /veh VCAN (11748164_a_at) / RFU JSRP1 (11732532_at) / Fold change /veh JSRP1 (11732532_at) / RFU KRTAP10-11 (11738290_x_at) / Fold change /veh KRTAP10-11 (11738290_x_at) / RFU MYO3A (11730013_a_at) / Fold change /veh MYO3A (11730013_a_at) / RFU EBF3 (11725865_a_at) / Fold change /veh EBF3 (11725865_a_at) / RFU CAMK2N1 (11719241_x_at) / Fold change /veh CAMK2N1 (11719241_x_at) / RFU C5orf56 (11738088_a_at) / Fold change /veh C5orf56 (11738088_a_at) / RFU OLFML3 (11715873_a_at) / Fold change /veh OLFML3 (11715873_a_at) / RFU LOC100653217 /// NTM (11731650_a_at) / Fold change /veh LOC100653217 /// NTM (11731650_a_at) / RFU MAPK11 (11762145_a_at) / Fold change /veh MAPK11 (11762145_a_at) / RFU FIZ1 (11724087_x_at) / Fold change /veh FIZ1 (11724087_x_at) / RFU OASL (11726364_x_at) / Fold change /veh OASL (11726364_x_at) / RFU SOX15 (11748057_x_at) / Fold change /veh SOX15 (11748057_x_at) / RFU CD79A (11719716_a_at) / Fold change /veh CD79A (11719716_a_at) / RFU HIST1H1D (11736915_at) / Fold change /veh HIST1H1D (11736915_at) / RFU CASKIN2 (11723855_a_at) / Fold change /veh CASKIN2 (11723855_a_at) / RFU LOC730098 (11760151_x_at) / Fold change /veh LOC730098 (11760151_x_at) / RFU OR4N2 (11742367_at) / Fold change /veh OR4N2 (11742367_at) / RFU PRRT2 (11749266_a_at) / Fold change /veh PRRT2 (11749266_a_at) / RFU SNX32 (11753110_a_at) / Fold change /veh SNX32 (11753110_a_at) / RFU CDHR5 (11726645_a_at) / Fold change /veh CDHR5 (11726645_a_at) / RFU RCAN1 (11760418_a_at) / Fold change /veh RCAN1 (11760418_a_at) / RFU FAM167A (11723789_a_at) / Fold change /veh FAM167A (11723789_a_at) / RFU FAM26E (11764081_at) / Fold change /veh FAM26E (11764081_at) / RFU ISYNA1 (11749810_s_at) / Fold change /veh ISYNA1 (11749810_s_at) / RFU ACY1 (11761880_at) / Fold change /veh ACY1 (11761880_at) / RFU 11764098_at / Fold change /veh 11764098_at / RFU SAMD14 (11745864_x_at) / Fold change /veh SAMD14 (11745864_x_at) / RFU NPB (11741838_a_at) / Fold change /veh NPB (11741838_a_at) / RFU TMPRSS6 (11731388_a_at) / Fold change /veh TMPRSS6 (11731388_a_at) / RFU KRTAP10-2 (11738614_at) / Fold change /veh KRTAP10-2 (11738614_at) / RFU ARHGAP8 /// PRR5-ARHGAP8 (11727945_x_at) / Fold change /veh ARHGAP8 /// PRR5-ARHGAP8 (11727945_x_at) / RFU KRTAP5-7 /// NADSYN1 (11734609_at) / Fold change /veh KRTAP5-7 /// NADSYN1 (11734609_at) / RFU RASL12 (11751679_a_at) / Fold change /veh RASL12 (11751679_a_at) / RFU CDKN2B (11736163_a_at) / Fold change /veh CDKN2B (11736163_a_at) / RFU PRF1 (11729649_at) / Fold change /veh PRF1 (11729649_at) / RFU, ZNF638 /// ZNF638-IT1 / Fold change vs veh, ZNF638 /// ZNF638-IT1 / RFU, PANK3 / Fold change vs veh, PANK3 / RFU, SH3YL1 / Fold change vs veh, SH3YL1 / RFU, ZEB2 / Fold change vs veh, ZEB2 / RFU, NRIP1 / Fold change vs veh, NRIP1 / RFU, PTTG1IP / Fold change vs veh, PTTG1IP / RFU, CAPN2 / Fold change vs veh, CAPN2 / RFU, MED14 / Fold change vs veh, MED14 / RFU, SNORA58 / Fold change vs veh, SNORA58 / RFU, C1orf63 / Fold change vs veh, C1orf63 / RFU, LRRFIP1 / Fold change vs veh, LRRFIP1 / RFU, NDUFAF7 / Fold change vs veh, NDUFAF7 / RFU, SLC12A2 / Fold change vs veh, SLC12A2 / RFU, IBTK / Fold change vs veh, IBTK / RFU, ESF1 / Fold change vs veh, ESF1 / Fold change vs veh, TMEM50B / RFU, TAOK1 / Fold change vs veh, TAOK1 / RFU, ACBD3 / Fold change vs veh, ACBD3 / RFU, TMA16 / Fold change vs veh, TMA16 / RFU, RWDD3 / Fold change vs veh, RWDD3 / RFU, BCAT1 / Fold change vs veh, BCAT1 / RFU, EDEM3 / Fold change vs veh, EDEM3 / RFU, TMEM33 / Fold change vs veh, TMEM33 / RFU, WDR75 / Fold change vs veh, WDR75 / RFU, AHCTF1 / Fold change vs veh, AHCTF1 / RFU, TFRC / Fold change vs veh, TFRC / RFU, ZDHHC17 / Fold change vs veh, ZDHHC17 / RFU, NOM1 / Fold change vs veh, NOM1 / RFU, ARL8B / Fold change vs veh, ARL8B / RFU, ZBTB11 / Fold change vs veh, ZBTB11 / RFU, TAMM41 / Fold change vs veh, TAMM41 / RFU, KIAA1704 /// LOC100996395 / Fold change vs veh, KIAA1704 /// LOC100996395 / RFU, ING1 / Fold change vs veh, ING1 / RFU, TRMT61B / Fold change vs veh, TRMT61B / RFU, FUBP3 / Fold change vs veh, FUBP3 / RFU, TP53 / Fold change vs veh, TP53 / RFU, TNKS2 / Fold change vs veh, TNKS2 / RFU, ZFP14 / Fold change vs veh, ZFP14 / RFU, ACTR2 / Fold change vs veh, ACTR2 / RFU, PPP3R1 / Fold change vs veh, PPP3R1 / RFU, PIK3R1 / Fold change vs veh, PIK3R1 / RFU, HNRNPA1 / Fold change vs veh, HNRNPA1 / RFU, RNF170 / Fold change vs veh, RNF170 / RFU, ZNF28 / Fold change vs veh, ZNF28 / RFU, RNGTT / Fold change vs veh, RNGTT / RFU, OGT / Fold change vs veh, OGT / RFU, BRD1 / Fold change vs veh, BRD1 / RFU, MARS / Fold change vs veh, MARS / RFU, ZNF655 / Fold change vs veh, ZNF655 / RFU, FAHD1 / Fold change vs veh, FAHD1 / RFU, BDP1 / Fold change vs veh, BDP1 / RFU, LRRCC1 / Fold change vs veh, LRRCC1 / RFU, ARID1A / Fold change vs veh, ARID1A / RFU, ZNF146 / Fold change vs veh, ZNF146 / RFU, ZNF330 / Fold change vs veh, ZNF330 / RFU, GPN3 / Fold change vs veh, GPN3 / RFU, C9orf123 / Fold change vs veh, C9orf123 / RFU, N4BP2L2 / Fold change vs veh, N4BP2L2 / RFU, ARFIP1 / Fold change vs veh, ARFIP1 / RFU, FAM179B / Fold change vs veh, FAM179B / RFU, BCL10 / Fold change vs veh, BCL10 / RFU, UHRF1BP1L / Fold change vs veh, UHRF1BP1L / RFU, BET1 / Fold change vs veh, BET1 / RFU, CNOT2 / Fold change vs veh, CNOT2 / RFU, ZNF268 / Fold change vs veh, ZNF268 / Fold change vs veh, ZNF507 / RFU, DGCR2 / Fold change vs veh, DGCR2 / RFU, WDSUB1 / Fold change vs veh, WDSUB1 / Fold change vs veh, HSP90B1 /// MIR3652 / RFU, ADSS / Fold change vs veh, ADSS / RFU, GK / Fold change vs veh, GK / RFU, ZNF148 / Fold change vs veh, ZNF148 / RFU, TAF9 / Fold change vs veh, TAF9 / RFU, SLC1A5 / Fold change vs veh, SLC1A5 / RFU, SLMO2 / Fold change vs veh, SLMO2 / RFU, ABCC4 / Fold change vs veh, ABCC4 / RFU, LOC101060439 /// RAP1B / Fold change vs veh, LOC101060439 /// RAP1B / RFU, RFX7 / Fold change vs veh, RFX7 / RFU, GTPBP10 / Fold change vs veh, GTPBP10 / RFU, CNEP1R1 / Fold change vs veh, CNEP1R1 / RFU, BIVM-ERCC5 /// ERCC5 / Fold change vs veh, BIVM-ERCC5 /// ERCC5 / RFU, ILF3 / Fold change vs veh, ILF3 / RFU 11762660_at / Fold change /veh 11762660_at / RFU VCAN (11757783_s_at) / Fold change /veh VCAN (11757783_s_at) / RFU DDX43 (11728927_at) / Fold change /veh DDX43 (11728927_at) / RFU KRT8 (11758188_x_at) / Fold change /veh KRT8 (11758188_x_at) / RFU NKD1 (11759106_at) / Fold change /veh NKD1 (11759106_at) / RFU SRD5A1 (11742802_a_at) / Fold change /veh SRD5A1 (11742802_a_at) / RFU TPSAB1 /// TPSB2 (11721975_s_at) / Fold change /veh TPSAB1 /// TPSB2 (11721975_s_at) / RFU GSTM3 (11746129_a_at) / Fold change /veh GSTM3 (11746129_a_at) / RFU IL23R (11737362_x_at) / Fold change /veh IL23R (11737362_x_at) / RFU TMEM51 (11727254_a_at) / Fold change /veh TMEM51 (11727254_a_at) / RFU PIWIL2 (11732686_x_at) / Fold change /veh PIWIL2 (11732686_x_at) / RFU ORM1 (11744905_x_at) / Fold change /veh ORM1 (11744905_x_at) / RFU CCDC152 (11743942_at) / Fold change /veh CCDC152 (11743942_at) / RFU ECM1 (11717891_a_at) / Fold change /veh ECM1 (11717891_a_at) / RFU IL23R (11748794_a_at) / Fold change /veh IL23R (11748794_a_at) / RFU TNFAIP8L3 (11732012_x_at) / Fold change /veh TNFAIP8L3 (11732012_x_at) / RFU MBOAT4 (11741988_at) / Fold change /veh MBOAT4 (11741988_at) / RFU 11764193_at / Fold change /veh 11764193_at / RFU TMEM53 (11763286_at) / Fold change /veh TMEM53 (11763286_at) / RFU MAGEB2 (11727129_at) / Fold change /veh MAGEB2 (11727129_at) / RFU TMEM200A (11744735_a_at) / Fold change /veh TMEM200A (11744735_a_at) / RFU CCDC152 (11751479_a_at) / Fold change /veh CCDC152 (11751479_a_at) / RFU FAM211A (11726209_a_at) / Fold change /veh FAM211A (11726209_a_at) / RFU RGS16 (11746705_a_at) / Fold change /veh RGS16 (11746705_a_at) / RFU VCAN (11755009_s_at) / Fold change /veh VCAN (11755009_s_at) / RFU RHOB (11743442_s_at) / Fold change /veh RHOB (11743442_s_at) / RFU RGS16 (11720943_a_at) / Fold change /veh RGS16 (11720943_a_at) / RFU RGS16 (11720944_at) / Fold change /veh RGS16 (11720944_at) / RFU, VPS4B / Fold change vs veh, VPS4B / RFU, CREB1 / Fold change vs veh, CREB1 / RFU, DNAJC13 / Fold change vs veh, DNAJC13 / RFU, GNAQ / Fold change vs veh, GNAQ / RFU, CDK5R1 / Fold change vs veh, CDK5R1 / RFU, ZRANB3 / Fold change vs veh, ZRANB3 / RFU, CUL4A / Fold change vs veh, CUL4A / RFU, CCNY / Fold change vs veh, CCNY / RFU, UFL1 / Fold change vs veh, UFL1 / RFU, COG3 / Fold change vs veh, COG3 / RFU, DIAPH2 / Fold change vs veh, DIAPH2 / RFU, SKA2 / Fold change vs veh, SKA2 / RFU, AFF3 / Fold change vs veh, AFF3 / RFU, LMF1 / Fold change vs veh, LMF1 / RFU, IPO11 / Fold change vs veh, IPO11 / RFU, DFFB / Fold change vs veh, DFFB / RFU, FOXP1 / Fold change vs veh, FOXP1 / RFU, CARD8 / Fold change vs veh, CARD8 / RFU, STRN3 / Fold change vs veh, STRN3 / RFU, ADK / Fold change vs veh, ADK / RFU, RASSF2 / Fold change vs veh, RASSF2 / RFU, WIPF1 / Fold change vs veh, WIPF1 / RFU, LARP1B / Fold change vs veh, LARP1B / RFU, RASA1 / Fold change vs veh, RASA1 / RFU, RB1 / Fold change vs veh, RB1 / RFU, PPFIA1 / Fold change vs veh, PPFIA1 / RFU, MAT2A / Fold change vs veh, MAT2A / RFU, CCT5 / Fold change vs veh, CCT5 / RFU, WDR92 / Fold change vs veh, WDR92 / RFU, CUX1 / Fold change vs veh, CUX1 / RFU, TTC7A / Fold change vs veh, TTC7A / RFU, TMEM135 / Fold change vs veh, TMEM135 / RFU, DEPTOR / Fold change vs veh, DEPTOR / RFU, CPM / Fold change vs veh, CPM / RFU, DNAJB6 / Fold change vs veh, DNAJB6 / RFU, CACNA2D3 / Fold change vs veh, CACNA2D3 / RFU, DTX4 / Fold change vs veh, DTX4 / RFU, TFCP2 / Fold change vs veh, TFCP2 / RFU, GMCL1 /// GMCL1P1 / Fold change vs veh, GMCL1 /// GMCL1P1 / RFU, AEBP2 / Fold change vs veh, AEBP2 / RFU, SNHG1 /// SNORD22 /// SNORD25 /// SNORD26 /// SNORD27 /// SNORD28 /// SNORD29 /// SNORD31 / Fold change vs veh, SNHG1 /// SNORD22 /// SNORD25 /// SNORD26 /// SNORD27 /// SNORD28 /// SNORD29 /// SNORD31 / Fold change (Aza/veh), C12orf56 (ProbeSet 11735607_a_at) / Fold change (ACY-1035/veh), C12orf56 (ProbeSet 11735607_a_at) / Fold change (Aza/veh), FGFR1OP (ProbeSet 11751329_s_at) / Fold change (ACY-1035/veh), FGFR1OP (ProbeSet 11751329_s_at) / Fold change (Aza/veh), VPS36 (ProbeSet 11739960_a_at) / Fold change (ACY-1035/veh), VPS36 (ProbeSet 11739960_a_at) / RFU SYPL1 (11715823_x_at) / Fold change /veh SYPL1 (11715823_x_at) / RFU IGFBP7 (11715501_s_at) / Fold change /veh IGFBP7 (11715501_s_at) / RFU REEP3 (11722064_at) / Fold change /veh REEP3 (11722064_at) / RFU IGLL1 (11728026_x_at) / Fold change /veh IGLL1 (11728026_x_at): dose or concentration left out as unconfirmed
Conditions: ProbeSet 11723944_a_at; LIST B

## Nc1ncn([C@@H]2O[C@H](CO)[C@@H](O)[C@H]2O)c(=O)n1 [azacitidine]
  RFU, PTTG1IP: 678.15 RFU
